Reference: US9714401B2, “Particles for malodor reduction” (The Procter & Gamble Company, priority 2015, dated 2017)

Experiment: Blocker Index (BI), expert graders smelling isovaleric acid + test material swatches against isovaleric acid reference scale
Text: Material selection is done by assigning two indices to a test sample material from two reference scales in order to rank odor strengths. The two reference scales are the Fragrance Fidelity Index (FFI) scale and the Blocker Index (BI) scale. The FFI ranks the ability of the test sample material to impart a perceivable odor which could cause interference when combined with another fragrance and the BI ranks the ability of the test sample material to reduce malodor perception. The two methods for assigning the indices to a test sample on the FFI and the BI reference scales are given below.
The first step in the method for assigning a BI to a test sample material on the BI reference scale is to create the BI reference swatches. […] Fabric swatches for this test are white knit polycotton (4 inch×4 inch) swatches from EMC ordered as PC 50/50. The supplier is instructed to strip the swatches first, stripping involves washing twice with a fragrance-free detergent and rinsing three times.
The BI scale contains one clean swatch with no malodor applied. […] These solutions are pipetted to the middle of the swatches. […] After drying for 30 minutes in a vented hood, the swatches are wrapped in aluminum foil to prevent odor contamination to the treated swatch. A clean untreated swatch is also included as the lowest anchor point of reference for malodor strength on the BI scale. […]

COC(=O)OC1CCC=CCCC1 (centres unmarked) [Material 1139]
BI (Conc 10 ppm test material on swatch with 20 μL 0.08% isovaleric acid): 2.0 | BI (Conc 50 ppm test material on swatch with 20 μL 0.08% isovaleric acid): 2.7
